Test results reported in US20250115597A1, “TYK2 INHIBITORS AND COMPOSITIONS AND METHODS THEREOF” (LYNK PHARMACEUTICALS CO. LTD., priority 2021, published 2025).
Read-outs that look alike come from different tables or passages of the source.

Experiments:
pSTAT1 [1] = assay: Phosphorylation inhibition of STAT in human whole blood, IFN-alpha stimulated (flow cytometry); assay type: cell-based; details: 20 min; human whole blood, IFN-alpha 20 mins, CD3 cells; read-out: IC50 on pSTAT1 inhibition in h WB
Outline: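 Readout is pSTAT1 (Y701) in CD3-stained cells by flow cytometry, with IC50 derived from a 4-parameter logistic equation. Fresh human PBMC or fresh whole blood received a 20-min Universal Type I IFN-alpha stimulation before fixation and cold permeabilization.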

[2] = molecular target: T1, Ba/F3-FL-TYK2-P760L cells (Homo sapiens, UniProt P29597, P760L, cells depend on it); assay: Anti-proliferative assay, Ba/F3-FL-TYK2-P760L cells (Cell-Titer Glo); assay type: cell-based; details: 72 h, read-out: BaF3-FL-T2P760L IC50
T1 construct: BaF3-FL-T2P760L (nM)
T1 sequence (P29597 whole entry P760L): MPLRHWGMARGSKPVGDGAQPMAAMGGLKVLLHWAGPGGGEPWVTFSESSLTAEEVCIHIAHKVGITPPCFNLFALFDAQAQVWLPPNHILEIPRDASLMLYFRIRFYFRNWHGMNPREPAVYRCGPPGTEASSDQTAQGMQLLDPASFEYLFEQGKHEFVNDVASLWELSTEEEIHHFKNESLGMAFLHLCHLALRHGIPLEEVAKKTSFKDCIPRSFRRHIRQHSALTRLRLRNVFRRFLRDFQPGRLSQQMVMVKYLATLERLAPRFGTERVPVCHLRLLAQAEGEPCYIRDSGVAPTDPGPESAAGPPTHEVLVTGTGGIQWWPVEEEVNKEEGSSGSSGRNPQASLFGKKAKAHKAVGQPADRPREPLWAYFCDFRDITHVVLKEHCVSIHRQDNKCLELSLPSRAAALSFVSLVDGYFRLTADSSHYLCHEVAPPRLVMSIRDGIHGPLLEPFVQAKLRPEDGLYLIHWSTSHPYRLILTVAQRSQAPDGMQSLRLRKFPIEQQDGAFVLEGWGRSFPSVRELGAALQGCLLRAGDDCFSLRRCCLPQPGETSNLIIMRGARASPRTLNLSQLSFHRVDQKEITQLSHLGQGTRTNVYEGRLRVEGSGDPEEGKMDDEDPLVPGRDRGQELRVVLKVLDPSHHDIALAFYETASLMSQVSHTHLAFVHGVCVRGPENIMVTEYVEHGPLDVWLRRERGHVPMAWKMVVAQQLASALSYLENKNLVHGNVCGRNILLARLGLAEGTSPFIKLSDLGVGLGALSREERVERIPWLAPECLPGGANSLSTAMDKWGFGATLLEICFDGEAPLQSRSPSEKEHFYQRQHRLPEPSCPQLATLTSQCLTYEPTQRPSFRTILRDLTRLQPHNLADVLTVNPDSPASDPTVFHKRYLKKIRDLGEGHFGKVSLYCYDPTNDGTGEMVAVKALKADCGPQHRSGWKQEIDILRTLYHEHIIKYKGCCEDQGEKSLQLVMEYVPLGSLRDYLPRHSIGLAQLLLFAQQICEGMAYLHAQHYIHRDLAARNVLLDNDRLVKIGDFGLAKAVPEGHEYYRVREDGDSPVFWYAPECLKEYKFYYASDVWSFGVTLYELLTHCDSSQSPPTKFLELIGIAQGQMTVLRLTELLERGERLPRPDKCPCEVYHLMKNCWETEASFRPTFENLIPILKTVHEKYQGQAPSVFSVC
Outline: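 Compound exposure ran 72 h at 37 °C in 5% CO2 across nine 3-fold concentrations from a 20 μM top dose, added 24 h after seeding 2000 cells/well.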

pSTAT1 [3] = assay: Phosphorylation inhibition of STAT in human PBMC, IFN-alpha stimulated (flow cytometry); assay type: cell-based; details: 20 min; human PBMC, IFN-alpha 20 mins, CD3 cells; read-out: IC50 on pSTAT1 inhibition in hPBMC
Protocol: Phosphorylation Inhibition of STAT in Human PBMC and Human Whole Blood Testing:
The inhibitory potential of test articles in human PBMC and human whole blood assay was evaluated by the method of flow cytometry.
IFN-alpha will activate JAK1 and TYK2 kinase in T cells by binding to IFN receptors, and then lead to phosphorylation of STAT1 and STAT2. The phosphorylated STAT1 enter nuclear and promote transcription and expression of IFN-gamma. To evaluate the efficacy of TYK2i in T cells, freshly prepared human PBMC or freshly collected human whole blood will be stimulated with certain unit of human IFN-alpha (Universal Type I IFN(1MU), R&D, 11200-2) for 20 mins in incubator. After stimulation, fix cells with Phosflow™ Fix Buffer I (BD, 557870), and then collect fixed cells by centrifugation (500 g, 8 min). Wash cells once with pre-cooled PBS, and then permeabilize cells with cold Perm Buffer III buffer (BD, 558050) for 45 mins on ice. Collect cells by centrifugation (600 g, 8 min) and washed twice with cold PBS. Stain cells with anti-human CD3 (FITC Mouse Anti-Human CD3, BD, 555332) and anti-pSTAT1_Y701(Alexa Fluor 647 Mouse Anti-Stat1 (pY701), BD, 612597) antibodies. Detect pSTAT1 by flow cytometry (CytoFlex S) and analyze data with FlowJo and GraphPad Prism 8 software. IC50 values of test articles were determined using 4-parameter logistic equation.

TYK2 = molecular target: T2, TYK2 (Homo sapiens, UniProt P29597); assay: TYK2 kinase activity, microfluidic assay (Caliper EZ Reader II); assay type: biochemical; details: TYK2 1 nM, 1 mM ATP
T2 construct: purchased Carna Biosciences
T2 sequence (P29597 whole entry): as the sequence (P29597 whole entry P760L) above, with L760P counted along it
Outline: (§1)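 Human JAK1, JAK2 or TYK2 enzyme was used in 50 mM HEPES, 10 mM MgCl2, 2 mM DTT and 0.01% Brij35, tuned to 10% conversion of a FAM-labelled peptide. Threefold dilutions of compound (top 5 µM, 1% DMSO) were pre-incubated with enzyme for 10 min, and reactions were stopped with EDTA. Phosphorylation was read by microfluidic mobility shift, and IC50 came from percent-inhibition curves.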

JAK2 = molecular target: T3, JAK2 (Homo sapiens, UniProt O60674); assay: JAK2 kinase activity, microfluidic assay (Caliper EZ Reader II); assay type: biochemical; details: JAK2 0.125 nM, 1 mM ATP
T3 construct: purchased Carna Biosciences
T3 sequence (O60674 whole entry): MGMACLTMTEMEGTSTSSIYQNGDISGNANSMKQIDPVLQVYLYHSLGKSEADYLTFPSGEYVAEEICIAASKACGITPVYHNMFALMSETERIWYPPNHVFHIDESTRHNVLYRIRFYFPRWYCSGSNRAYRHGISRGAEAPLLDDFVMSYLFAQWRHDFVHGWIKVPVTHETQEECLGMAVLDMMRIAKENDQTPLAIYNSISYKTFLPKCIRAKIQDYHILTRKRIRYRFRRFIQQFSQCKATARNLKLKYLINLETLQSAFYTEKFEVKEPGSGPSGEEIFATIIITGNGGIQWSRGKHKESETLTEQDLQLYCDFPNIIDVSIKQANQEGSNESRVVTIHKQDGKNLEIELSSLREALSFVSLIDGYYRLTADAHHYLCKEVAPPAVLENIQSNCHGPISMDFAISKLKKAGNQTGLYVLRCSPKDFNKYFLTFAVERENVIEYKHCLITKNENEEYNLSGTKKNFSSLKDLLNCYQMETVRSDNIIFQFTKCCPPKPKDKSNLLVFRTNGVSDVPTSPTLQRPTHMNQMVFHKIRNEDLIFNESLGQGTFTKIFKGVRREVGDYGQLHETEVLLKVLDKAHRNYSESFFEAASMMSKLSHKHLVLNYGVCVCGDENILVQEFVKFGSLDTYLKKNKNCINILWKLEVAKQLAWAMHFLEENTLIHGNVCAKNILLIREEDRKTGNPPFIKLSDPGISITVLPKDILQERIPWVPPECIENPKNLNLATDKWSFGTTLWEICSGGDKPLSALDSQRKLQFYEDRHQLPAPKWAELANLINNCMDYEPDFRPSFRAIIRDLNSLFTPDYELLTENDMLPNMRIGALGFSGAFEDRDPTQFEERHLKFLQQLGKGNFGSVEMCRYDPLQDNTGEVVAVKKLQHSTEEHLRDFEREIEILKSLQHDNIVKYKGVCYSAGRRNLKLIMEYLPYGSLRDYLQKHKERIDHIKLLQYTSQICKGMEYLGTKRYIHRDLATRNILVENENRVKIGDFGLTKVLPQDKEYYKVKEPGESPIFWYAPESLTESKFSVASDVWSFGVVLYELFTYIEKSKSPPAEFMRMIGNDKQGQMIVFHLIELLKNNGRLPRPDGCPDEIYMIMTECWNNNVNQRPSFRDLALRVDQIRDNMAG
Outline: as §1

Ba/F3-TEL-JAK2 cells = molecular target: T4, Ba/F3-TEL-JAK2 cells (Homo sapiens, UniProt O60674); assay: Anti-proliferative assay, Ba/F3-TEL-JAK2 cells (Cell-Titer Glo); assay type: cell-based; details: 72 h, read-out: BaF3-TEL-JAK2 IC50
T4 construct: fused on or other part: Dimerization domain of TEL (ETV6) fused to the JAK2 kinase domain; P41212 (Transcription factor ETV6)
T4 sequence (O60674 whole entry, change not shown, the tested form may be a part): as the sequence (O60674 whole entry) above
Protocol: (§2) Anti-Proliferative Assay Dimerization domain of Tel protein fused with JAK kinase domain was permanently transduced into Ba/F3 cells, whose proliferation is dependent on JAK activity in the absence of IL-3 induction. These engineered Ba/F3 cells (Ba/F3-FL-TYK2-[…], Ba/F3-TEL-TYK2 and Ba/F3-TEL-JAK2) were used to monitor JAK inhibitory activities of the compounds in the cellular. […] Cells were seeded at 2000/well of white flat bottom 96-well plates. The well containing medium only was used as background control. After 24 h growth, cells were treated with compounds. The test compounds were dissolved in DMSO to a stock concentration of 20 mM. 3-fold serially diluted compounds for 9 concentrations with top concentration of 20 μM was added into the each well. […] The cells continued to grow at 37° C. in 5% CO2 for 72 h after compound treatment. The viability was measured by cellular ATP determination using the Cell-Titer Glo luciferase reagent (Promega). The Luminescence value was recorded by a multi-label reader Envision (PerkinElmer).

[4] = Microsomal metabolic stability assay; assay type: in vitro ADME; details: pH 7.4, 0.5 mg/mL protein, 1 μM compound
Outline: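 Parent loss was tracked by LC/MS/MS at 0, 5, 15, 30 and 45 min, with half-life derived from the ln(% remaining)–time slope. Incubation at 37 °C, pH 7.4 phosphate/EDTA buffer: 0.5 mg/mL microsomes, 1 μM compound, NADPH-regenerated (2 mM).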

Ba/F3-TEL-TYK2 cells = molecular target: T5, Ba/F3-TEL-TYK2 cells (Homo sapiens, UniProt P29597); assay: Anti-proliferative assay, Ba/F3-TEL-TYK2 cells (Cell-Titer Glo); assay type: cell-based; details: 72 h, read-out: BaF3-TEL-TYK2 IC50
T5 construct: fused on or other part: Dimerization domain of TEL (ETV6) fused to the TYK2 kinase domain; P41212 (Transcription factor ETV6)
T5 sequence (P29597 whole entry, change not shown, the tested form may be a part): as the sequence (P29597 whole entry P760L) above, with L760P counted along it
Protocol: as §2

JAK1 = molecular target: T6, JAK1 (Homo sapiens, UniProt P23458); assay: JAK1 kinase activity, microfluidic assay (Caliper EZ Reader II); assay type: biochemical; details: JAK1 5 nM, 1 mM ATP
T6 construct: purchased Carna Biosciences
T6 sequence (P23458 whole entry): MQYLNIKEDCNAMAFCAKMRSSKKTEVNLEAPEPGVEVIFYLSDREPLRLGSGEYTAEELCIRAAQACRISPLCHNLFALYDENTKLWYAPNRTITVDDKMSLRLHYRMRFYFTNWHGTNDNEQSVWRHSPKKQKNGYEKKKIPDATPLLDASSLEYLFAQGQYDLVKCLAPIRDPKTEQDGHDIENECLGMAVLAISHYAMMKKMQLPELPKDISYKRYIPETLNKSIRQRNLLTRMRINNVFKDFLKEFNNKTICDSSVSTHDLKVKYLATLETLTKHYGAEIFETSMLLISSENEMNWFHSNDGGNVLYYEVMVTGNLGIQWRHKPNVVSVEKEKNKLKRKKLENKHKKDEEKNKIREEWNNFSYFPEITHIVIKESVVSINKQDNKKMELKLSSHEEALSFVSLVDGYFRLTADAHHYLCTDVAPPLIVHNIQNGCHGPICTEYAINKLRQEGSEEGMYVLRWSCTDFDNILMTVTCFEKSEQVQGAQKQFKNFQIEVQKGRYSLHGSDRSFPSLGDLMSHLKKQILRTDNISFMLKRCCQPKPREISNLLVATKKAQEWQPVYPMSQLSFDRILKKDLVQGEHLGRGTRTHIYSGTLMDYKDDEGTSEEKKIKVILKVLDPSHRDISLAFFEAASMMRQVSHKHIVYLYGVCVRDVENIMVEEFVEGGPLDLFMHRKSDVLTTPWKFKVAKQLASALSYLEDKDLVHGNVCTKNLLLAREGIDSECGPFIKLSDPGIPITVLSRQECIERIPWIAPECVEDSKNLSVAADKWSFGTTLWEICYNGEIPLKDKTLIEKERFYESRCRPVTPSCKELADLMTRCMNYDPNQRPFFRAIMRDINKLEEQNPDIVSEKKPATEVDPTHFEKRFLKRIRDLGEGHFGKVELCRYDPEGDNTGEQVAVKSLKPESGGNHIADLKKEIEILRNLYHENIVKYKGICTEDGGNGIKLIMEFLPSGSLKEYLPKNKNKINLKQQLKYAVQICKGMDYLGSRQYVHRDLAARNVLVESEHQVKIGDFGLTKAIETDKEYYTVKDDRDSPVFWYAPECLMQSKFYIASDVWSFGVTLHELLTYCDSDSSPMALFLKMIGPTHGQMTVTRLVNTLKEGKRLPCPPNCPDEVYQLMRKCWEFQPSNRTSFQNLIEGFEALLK
Outline: as §1

[5] = Plasma protein binding by equilibrium dialysis; assay type: in vitro ADME; details: human plasma, equilibrium dialysis 5 hours at 37° C.; read-out: % Bound (human) (converted)
Outline: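 Compound spiked into plasma at 0.2 and 2 μM was dialyzed against PBS for 5 h at 37° C with shaking, in duplicate. Plasma and buffer chambers were matrix-matched, protein-precipitated and analysed by LC-MS/MS to derive % unbound, % bound and % recovery.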

TYK2-JH2 domain = molecular target: T7, TYK2-JH2 domain (Homo sapiens, UniProt P29597); assay: Binding activity test for JH2 domain of TYK2 (Tb-antibody/tracer FRET)
T7 construct: IC50 on JH2 domain activity (nM)
T7 sequence (P29597 589-875 limits assumed): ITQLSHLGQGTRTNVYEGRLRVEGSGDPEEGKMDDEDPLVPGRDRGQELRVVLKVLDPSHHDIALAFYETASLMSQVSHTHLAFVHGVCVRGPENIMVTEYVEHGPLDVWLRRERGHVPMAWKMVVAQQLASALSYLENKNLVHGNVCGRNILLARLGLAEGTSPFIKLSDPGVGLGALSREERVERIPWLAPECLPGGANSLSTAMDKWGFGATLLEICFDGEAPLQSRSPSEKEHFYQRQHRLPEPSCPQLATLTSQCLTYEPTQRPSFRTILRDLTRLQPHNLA
Outline: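 FRET read-out after 60 min at 25° C plus overnight at 4° C; tracer displacement detected via Tb-labelled antibody on the JH2 domain. Dose-response used 11 points at 3-fold dilution.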

[6] = dog liver microsomes, read-out: Dog LM Clint
[7] = dog liver microsomes, read-out: Dog LM T½
[8] = human liver microsomes, read-out: Human LM Clint
[9] = human liver microsomes, read-out: Human LM T½
[10] = rat liver microsomes, read-out: Rat LM Clint
[11] = rat liver microsomes, read-out: Rat LM T½

Row | SMILES | IC50 (pSTAT1 [1]) [µM] | GI50 [2] [µM] | IC50 (pSTAT1 [3]) [µM] | IC50 (TYK2) [µM] | IC50 (JAK2) [µM] | GI50 (Ba/F3-TEL-JAK2 cells) [µM] | microsomal CLint at 1 μM [4, 6] [µL/min/mg] | half-life at 1 μM [4, 7] [h] | microsomal CLint at 1 μM [4, 8] [µL/min/mg] | half-life at 1 μM [4, 9] [h] | microsomal CLint at 1 μM [4, 10] [µL/min/mg] | half-life at 1 μM [4, 11] [h] | GI50 (Ba/F3-TEL-TYK2 cells) [µM] | IC50 (JAK1) [µM] | fraction unbound at 5 h [5] | IC50 (TYK2-JH2 domain) [nM]
1 | [2H]C([2H])([2H])NC(=O)c1nnc(NC(=O)C2CC2)cc1Nc1cn(C)c2ccn(CC)c(=O)c12 [Example 223, 6-(Cyclopropanecarboxamido)-4-((5-ethyl-1-methyl-4-oxo-4,5-dihydro-1H-pyrrolo[3,2-c]pyridin-3-yl)amino)-N-(methyl-d3)pyridazine-3-carboxamide] | 0.376 | 0.0827 | 0.0433 | – | – | – | – | – | – | – | – | – | – | – | – | –
2 | CNC(=O)c1nnc2cc1Nc1cc(cc(-c3ncn(C)n3)c1OC)COCc1cccc(n1)N2 [Example 35, 10-Methoxy-N-methyl-11-(1-methyl-1H-1,2,4-triazol-3-yl)-15-oxa-2,4,5,8,21-pentaazatetracyclo[15.3.1.1^{3,7}.1^{9,13}]tricosa-1(21),3,5,7(23),9(22),10,12,17,19-nonaene-6-carboxamide] | – | 0.0482 | – | > 5 | > 5 | 0.789 | < 18.6 | > 3.1 | 21.2 | 2.72 | 63.8 | 0.905 | > 20 | > 5 | – | –
3 | [2H]C([2H])([2H])NC(=O)c1cnc(Nc2cccc(C#N)c2)nc1Nc1cccc(-c2ncn(C)n2)c1OC [Example 19, 2-(3-Cyanoanilino)-4-[2-methoxy-3-(1-methyl-1,2,4-triazol-3-yl)anilino]-N-(trideuteriomethyl)pyrimidine-5-carboxamide] | – | 0.0349 | – | > 5 | > 5 | 4.96 | 71.2 | 0.812 | 4.46 | 12.9 | 43.6 | 1.32 | > 20 | > 5 | 0.038 | 0.098
4 | CCn1ccc2scc(Nc3cc(Nc4ccc(F)cn4)ncc3C(=O)NC)c2c1=O [Example 18, 4-((5-Ethyl-4-oxo-4,5-dihydrothieno[3,2-c]pyridin-3-yl)amino)-6-((5-fluoropyridin-2-yl)amino)-N-methylnicotinamide] | – | 0.0484 | – | > 5 | > 5 | > 20 | – | – | – | – | – | – | > 20 | > 5 | – | –
5 | CCn1ccc2c(c(Nc3cc(Nc4ccc(F)cn4)ncc3C(=O)NC)cn2C)c1=O [Example 10, 4-((5-Ethyl-1-methyl-4-oxo-4,5-dihydro-1H-pyrrolo[3,2-c]pyridin-3-yl)amino)-6-((5-fluoropyridin-2-yl)amino)-N-methylnicotinamide] | – | 0.0545 | – | > 5 | > 5 | 3.73 | 27.1 | 2.13 | 88.3 | 0.654 | 137 | 0.422 | 4.03 | > 5 | – | –
6 | [2H]C([2H])([2H])NC(=O)c1cnc(Nc2ccc(C#N)cc2)nc1Nc1cccc(-c2ncn(C)n2)c1OC [Example 28, 2-((4-Cyanophenyl)amino)-4-((2-methoxy-3-(1-methyl-1H-1,2,4-triazol-3-yl)phenyl)amino)-N-(methyl-d3) pyrimidine-5-carboxamide] | – | 0.065 | – | – | – | > 20 | 4.77 | 4.84 | 2.46 | 9.39 | 14.3 | 1.61 | > 20 | – | – | –
7 | [2H]C([2H])([2H])NC(=O)c1cnc(Nc2ccc(F)cc2)nc1Nc1cccc(-c2ncn(C)n2)c1OC [Example 20, 2-(4-Fluoroanilino)-4-[2-methoxy-3-(1-methyl-1,2,4-triazol-3-yl)anilino]-N-(trideuteriomethyl)pyrimidine-5-carboxamide] | – | 0.078 | – | > 5 | 0.173 | 1.18 | 101 | 0.572 | 13.3 | 4.36 | 45.7 | 1.26 | 2.53 | > 5 | – | –
8 | CNC(=O)c1cnc2cc1Nc1cc(cc(-c3ncn(C)n3)c1OC)COCc1cccc(n1)N2 [Example 34, 10-Methoxy-N-methyl-11-(1-methyl-1,2,4-triazol-3-yl)-15-oxa-2,4,8,21-tetrazatetracyclo[15.3.1.13,7.19,13]tricosa-1(21),3(23),4,6,9,11,13(22),17,19-nonaene-6-carboxamide] | – | 0.125 | – | – | – | 4.35 | – | – | – | – | – | – | 7.18 | – | – | –
9 | CNC(=O)c1cnc(NC(=O)C2CC2)cc1Nc1cn(C)c2c(F)cn(C)c(=O)c12 [Example 14, 6-(Cyclopropanecarboxamido)-4-((7-fluoro-1,5-dimethyl-4-oxo-4,5-dihydro-1H-pyrrolo[3,2-c]pyridin-3-yl)amino)-N-methylnicotinamide] | – | 0.33 | – | > 5 | > 5 | > 20 | 6.43 | 3.59 | 23.6 | 0.98 | 101 | 0.228 | > 20 | > 5 | – | –
